The text below walks through data of PubChem BioAssay AID330 (DTP/NCI, 2004).

For the experiment, the system named is P388 leukemia ip, CD2F1 mice, survival T/C. As to the kind of experiment: NCI In Vivo Anticancer Drug Screen. Data for tumor model P388 Leukemia (intraperitoneal) in CD2F1 (CDF1) mice. Conditions: endpoint: median survival time, higher = longer survival. The essentials:
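Mice carrying the transplanted tumor received test compound or vehicle. Survival was recorded in each group, and the value is the treated-group measurement divided by that of the vehicle-treated control group.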

Setting [1] is: dose: 25.0 mg/kg/injection, schedule: Q01DX009 (ip), vehicle: saline.
Setting [2] is: dose: 50.0 mg/kg/injection, schedule: Q01DX009 (ip), vehicle: saline with Tween-80.
[3] abbreviates: dose: 100.0 mg/kg/injection, schedule: Q01DX009 (ip), vehicle: saline with Tween-80.
The mark [4] stands for this setting: dose: 200.0 mg/kg/injection, schedule: Q01DX009 (ip), vehicle: saline with Tween-80.
The mark [5] stands for this setting: dose: 50.0 mg/kg/injection, schedule: Q01DX009 (ip), vehicle: Klucel (hydroxypropylcellulose) (HPC).
Setting [6] is: dose: 100.0 mg/kg/injection, schedule: Q01DX009 (ip), vehicle: Klucel (hydroxypropylcellulose) (HPC).
Setting [7] is: dose: 200.0 mg/kg/injection, schedule: Q01DX009 (ip), vehicle: Klucel (hydroxypropylcellulose) (HPC).
Where [8] appears, read: dose: 50.0 mg/kg/injection, schedule: Q01DX005 (ip), vehicle: Klucel (hydroxypropylcellulose) (HPC).
Where [9] appears, read: dose: 100.0 mg/kg/injection, schedule: Q04DX003 (ip), vehicle: saline with Tween-80.
Where [10] appears, read: dose: 50.0 mg/kg/injection, schedule: Q01DX005 (ip), vehicle: saline with Tween-80.
[11] abbreviates: dose: 100.0 mg/kg/injection, schedule: Q01DX005 (ip), vehicle: saline with Tween-80.
Where [12] appears, read: dose: 200.0 mg/kg/injection, schedule: Q01DX005 (ip), vehicle: saline with Tween-80.
The mark [13] stands for this setting: dose: 60.0 mg/kg/injection, schedule: Q01DX005 (ip), vehicle: saline with Tween-80.
[14] abbreviates: dose: 120.0 mg/kg/injection, schedule: Q01DX005 (ip), vehicle: saline with Tween-80.
Where [15] appears, read: dose: 240.0 mg/kg/injection, schedule: Q01DX005 (ip), vehicle: saline with Tween-80.

Where “and” joins values, the source holds several entries; their conditions need not be identical. Equal values may be shown once. Toxic doses and inconclusive results are not listed.

Take `OCC[N+]12CN3CN(CN(C3)C1)C2`: the T/C is 108 % of control under setting [1]; 110 % of control (dose: 50.0 mg/kg/injection, schedule: Q01DX009 (ip), vehicle: saline); 111 % of control (dose: 100.0 mg/kg/injection, schedule: Q01DX009 (ip), vehicle: saline); 118 % of control (dose: 178.0 mg/kg/injection, schedule: Q01DX009 (ip), vehicle: saline); 118 % of control (dose: 200.0 mg/kg/injection, schedule: Q01DX009 (ip), vehicle: saline); 118 % of control (dose: 266.0 mg/kg/injection, schedule: Q01DX009 (ip), vehicle: saline).
Consider `CCCCCCC(=O)CC(SCC)c1c(Cl)cccc1Cl` (stereo unspecified), for which the T/C is, setting by setting: under setting [2], 89 % of control; under setting [3], 98 % of control; under setting [4], 100 % of control.
As to `CC(=O)Nc1ccc(NC(=O)Nc2c(Cl)cccc2Cl)cc1`, the T/C is, setting by setting: under setting [5], 100 % of control; under setting [6], 98 % of control; under setting [7], 91 % of control.
As for `O=S1(c2ccccc2)=NC(Nc2ccccc2)=Nc2ccccc21` (stereo unspecified), the T/C is, setting by setting: under setting [2], 107 % of control; under setting [3], 101 % of control; under setting [4], 111 % of control.
As for `CC1=CC(=O)c2c(O)c3c(c(O)c2C1=O)C1C(O)C(C3=O)C23C(=O)c4c(O)c(C)cc(O)c4C(O)=C2C(=O)CC(O)C13` (stereo unspecified), the T/C is 101 % of control (dose: 1.5 mg/kg/injection, schedule: Q01DX005 (ip), vehicle: Klucel (hydroxypropylcellulose) (HPC)); 115 % of control (dose: 3.0 mg/kg/injection, schedule: Q01DX005 (ip), vehicle: Klucel (hydroxypropylcellulose) (HPC)); 115 % of control (dose: 6.0 mg/kg/injection, schedule: Q01DX005 (ip), vehicle: Klucel (hydroxypropylcellulose) (HPC)); 113 % of control (dose: 12.0 mg/kg/injection, schedule: Q01DX005 (ip), vehicle: Klucel (hydroxypropylcellulose) (HPC)); 108 % of control (dose: 12.5 mg/kg/injection, schedule: Q01DX005 (ip), vehicle: Klucel (hydroxypropylcellulose) (HPC)); 105 % of control (dose: 25.0 mg/kg/injection, schedule: Q01DX005 (ip), vehicle: Klucel (hydroxypropylcellulose) (HPC)). Besides, the T/C under setting [8] is 105 % of control.
`CCCOP(=S)(N1CC1C)N1CC1(C)C` (stereo unspecified): the T/C is 122 % of control (dose: 12.5 mg/kg/injection, schedule: Q04DX003 (ip), vehicle: saline with Tween-80); 154 % of control (dose: 50.0 mg/kg/injection, schedule: Q04DX003 (ip), vehicle: saline with Tween-80); 186 % of control (dose: 66.0 mg/kg/injection, schedule: Q04DX003 (ip), vehicle: saline with Tween-80); 113 % of control under setting [3]; 227 % of control under setting [9]; 118 % of control (dose: 150.0 mg/kg/injection, schedule: Q04DX003 (ip), vehicle: saline with Tween-80).
As to `CCC1(O)C(=O)OCc2c1cc1n(c2=O)Cc2c-1nc1ccccc1c2OC` (stereo unspecified), the T/C is 103 % of control (dose: 6.25 mg/kg/injection, schedule: Q01DX009 (ip), vehicle: saline); 100 % of control (dose: 12.5 mg/kg/injection, schedule: Q01DX009 (ip), vehicle: saline); 108 % of control under setting [1].
As to `COc1ccc2c(c1)OC(C)(C)C(c1ccccc1)C2c1ccc(O)c([N+](=O)[O-])c1` (stereo unspecified), the T/C reads like this: under setting [8], 109 % of control; (dose: 100.0 mg/kg/injection, schedule: Q01DX005 (ip), vehicle: Klucel (hydroxypropylcellulose) (HPC)) 101 % of control.
For `C=Cc1cnc([N+](=O)[O-])n1C`, the T/C runs as follows: under setting [5], 110 % of control and 123 % of control; under setting [6], 111 % of control; under setting [7], 153 % of control.
In the case of `CCc1cccc(C)c1NC(=O)CCc1nnc(N)n1N`, the T/C runs as follows: under setting [10], 104 % of control; under setting [11], 107 % of control; under setting [12], 94 % of control.
Regarding `CCOC(=O)CNCc1ccc(Cl)c(Cl)c1`, the T/C was 100 % of control (dose: 6.25 mg/kg/injection, schedule: Q01DX009 (ip), vehicle: Klucel (hydroxypropylcellulose) (HPC)); 103 % of control and 97 % of control (dose: 12.5 mg/kg/injection, schedule: Q01DX009 (ip), vehicle: Klucel (hydroxypropylcellulose) (HPC)); 100 % of control (dose: 25.0 mg/kg/injection, schedule: Q01DX009 (ip), vehicle: Klucel (hydroxypropylcellulose) (HPC)); 108 % of control and 94 % of control under setting [5]; 104 % of control under setting [6].
Turning to `CC1C(=O)N(C)C(=O)N(C2CCCCC2)C1=O` (stereo unspecified), the T/C under setting [13] is 104 % of control, the T/C under setting [14] is 104 % of control and the T/C under setting [15] was 101 % of control.
For the compound `Cc1nnc2n1-c1ccc(Cl)cc1C(c1ccccc1)=[N+]([O-])C2`, the T/C is 103 % of control under setting [2] and 104 % of control under setting [3].
Regarding `COC(=O)C1CCC(c2ccccc2)(c2ccccc2)C1O.COC(=O)C1CCC(c2ccccc2)(c2ccccc2)C1O.[Cu]` (stereo unspecified), the T/C reads like this: (dose: 100.0 mg/kg/injection, schedule: Q01DX001 (ip), vehicle: Klucel (hydroxypropylcellulose) (HPC)) 100 % of control; (dose: 200.0 mg/kg/injection, schedule: Q01DX001 (ip), vehicle: Klucel (hydroxypropylcellulose) (HPC)) 100 % of control; (dose: 400.0 mg/kg/injection, schedule: Q01DX001 (ip), vehicle: Klucel (hydroxypropylcellulose) (HPC)) 100 % of control.
As for `CCOc1ccccc1C=C1c2ccccc2C(=O)c2ccccc21`, the T/C was 96 % of control under setting [2], 92 % of control under setting [3] and 91 % of control under setting [4].
On to `COc1cccc2c1C(=O)c1c(O)c3c(c(O)c1C2=O)[C@@H](OC)[C@@](O)(C(C)=O)C[C@@H]3OC1CC(N)C(O)C(C)O1` (stereo partly specified), for which the T/C reads like this: (dose: 3.13 mg/kg/injection, schedule: Q04DX003 (ip), vehicle: saline) 110 % of control; (dose: 6.25 mg/kg/injection, schedule: Q04DX003 (ip), vehicle: saline) 115 % of control.
As to `Cc1ccccc1C(C)(O)Cc1nccn1Cc1ccccc1` (stereo unspecified), the T/C under setting [13] is 99 % of control, the T/C under setting [14] is 104 % of control and the T/C under setting [15] is 96 % of control.
For `COc1ccccc1C1NC(c2ccccc2OC)C2CCCC1NC2=O` (stereo unspecified), the T/C is, setting by setting: (dose: 100.0 mg/kg/injection, schedule: Q04DX003 (ip), vehicle: suspension in saline) 98 % of control; (dose: 200.0 mg/kg/injection, schedule: Q04DX003 (ip), vehicle: suspension in saline) 98 % of control; (dose: 400.0 mg/kg/injection, schedule: Q04DX003 (ip), vehicle: suspension in saline) 98 % of control.
For `COc1cc2c(cc1OC)C13CCCC4(OCCO4)C1=CC2(C)O3` (stereo unspecified), the T/C under setting [2] was 101 % of control, the T/C under setting [3] is 94 % of control and the T/C under setting [4] is 93 % of control.
For `[O-]c1nn(Cc2ccccc2)c2cccc[n+]12`, the T/C was 103 % of control (dose: 100.0 mg/kg/injection, schedule: Q04DX002 (ip), vehicle: saline); 99 % of control (dose: 200.0 mg/kg/injection, schedule: Q04DX002 (ip), vehicle: saline); 100 % of control (dose: 400.0 mg/kg/injection, schedule: Q04DX002 (ip), vehicle: saline).
For the compound `N=C(N)SCc1ccc(C(=O)Oc2ccc([N+](=O)[O-])cc2)cc1`, the T/C was 100 % of control under setting [9] and 104 % of control (dose: 200.0 mg/kg/injection, schedule: Q04DX003 (ip), vehicle: saline with Tween-80).
Turning to `CC(=O)Oc1ccccc1C(=O)OC1CC2CCC1(C)C2(C)C` (stereo unspecified), the T/C is, setting by setting: under setting [10], 92 % of control; under setting [11], 97 % of control; under setting [12], 98 % of control.
Take `O=C(O)C1CSC2(CCCCC2)N1` (stereo unspecified): the T/C runs as follows: (dose: 50.0 mg/kg/injection, schedule: Q04DX003 (ip), vehicle: saline) 104 % of control; (dose: 100.0 mg/kg/injection, schedule: Q04DX003 (ip), vehicle: saline) 95 % of control; (dose: 200.0 mg/kg/injection, schedule: Q04DX003 (ip), vehicle: saline) 99 % of control; (dose: 400.0 mg/kg/injection, schedule: Q04DX003 (ip), vehicle: saline) 96 % of control.
In the case of `CCOC(=O)C/C(O)=C(\N=Nc1nc[nH]c1C(N)=O)C(=O)OCC`, the T/C under setting [10] was 105 % of control, the T/C under setting [11] is 91 % of control and the T/C under setting [12] was 97 % of control.
